Results published in patent US7541446B2, “Tet repressor-based transcriptional regulatory proteins” (Tet Systems Holding GmbH & Co. KG, priority 1999, dated 2009).

Tests used:
Assay type in all cases: cell-based
[1] = system: GFP controlled by a tTA/rtTA responsive promoter; experiment: rtTA dependent GFP fluorescence in S. cerevisiae; settings: for basal activity (GFP fluorescence in the absence of inducer): excitation 490 nm, emission 512 nm
From the text: Thus, a plasmid, designated pCM190GFP+, was constructed which contains the following elements: • the coding sequence for GFP controlled by a tTA/rtTA responsive promoter; • a tTA/rtTA encoding sequence that is constitutively expressed; • the URA3 marker that allows selection in appropriate yeast strains; • the replication function of the 2μ episome of S. cerevisiae. Unique endonuclease cleavage sites allow for the removal of the TetR, the activation domain, or the entire tTA encoding sequences, typically replaced by pools of mutagenized alleles obtained as described previously (Leung et al., 1989).
The gene encoding GFP was cloned into the multiple cloning site of pCM190 (Gari et al., 1997) to serve as an indicator of rtTA activity, yielding plasmid pCM190GFP+. The TetR portion of tTA was amplified for mutagenesis with two oligonucleotide primers, 5′-[…] (SEQ ID NO:46), and 5′-[…] (SEQ ID NO:47), from the vector pCM190 as described (Leung et al., 1989). The PCR-fragments and pCM190-GFP+ were restricted with XbalI and BsiWI and purified. The PCR-fragments and the vector were then ligated and transformed into E. coli DH5α. Several thousand E. coli clones were co-cultured, and their plasmid pools were prepared and transformed into S. cerevisiae using the LiAc-method (Ito et al., 1983). […]
Accordingly, the resulting uracil-prototroph yeast clones were replica plated on minimal medium without uracil containing either Tc and/or Dox and scored after growth for two to three days at 30° C. using long wavelength UV-light to excite GFP fluorescence. […] The GFP fluorescence is shown on a logarithmic scale on the left axis. Fluorescence intensities are shown for each transactivator in the absence of inducer, in the presence of 10 μg/ml of Tc, and/or in the presence of 10 μg/ml of Dox. […]
S. cerevisiae strains containing rtTA-34R, rtTA-44R and a GFP^31 strain, as well as strains containing the original tTA and rtTA were grown overnight in minimal medium. […] The light emission of these cells was scored in a fluorimeter using an excitation wavelength of 490 nm and recording emission at 512 nm. […]

[2] = system: luciferase gene controlled by Ptet; experiment: rtTA-dependent luciferase expression in transiently cotransfected HeLa cells (pUHC13-3); settings: for induction of luciferase activity compared to rtTA: 5 μg/ml Tc or Dox; for reverse phenotype: transient expression, luciferase
Protocol: rtTA-34R and rtTA-44R were then recloned into pUHD15-1 (Gossen & Bujard, 1992), replacing the respective portions of tTA. HeLa cells were transiently cotransfected with plasmids pUHC13-3, encoding the luciferase gene controlled by Ptet (Gossen & Bujard, 1992), and the pUHD15-1 plasmids containing the genes of the respective transactivators. Luciferase activities were measured in absence (light column) and presence of 5 μg/ml of the effectors tetracycline (Tc, light grey) or doxycycline (Dox, dark grey). On the X axis, (−) corresponds to control HeLa cells into which no DNA was transferred. […] The increased regulation factor observed results from both a lower basal and a higher induced activity.
To obtain additional information about the role of the mutated residues, we separated the mutations at positions 19 and 56 from those at 139, 148 and 179. The resulting proteins are called rtTA-1956R and rtTA-148179R. The activation potential of rtTA-1956R and rtTA-148179R was assessed in transient expression experiments. Plasmids encoding the respective rtTA variants were cotransfected with the pUHC13-3 luciferase indicator plasmid into HeLa cells and the luciferase activity was determined.

[3] = system: luciferase reporter construct pUHC13-3; experiment: Doxycycline-dependent regulation of luciferase in HeLa cell lines stably producing the transactivator, reporter pUHC13-3 transiently transfected
From the text: In order to generate cell lines that maintain the plasmid episomally and thus produce the transactivator over extended periods of time, the transcription unit containing the rtTA-34R coding sequence controlled by the hCMV promoter was inserted into […] (Invitrogen, Carlsbad, USA) from which the RSV promoter had been excised. […] HeLa cells were transfected with the plasmid pCEP4-rtTA-34R, and clones isolated via G418 selection. Clones stably producing the transactivator were selected and tested for their ability to activate transcription from the transiently transfected luciferase reporter construct pUHC13-3 in the presence and absence of Dox.
Upon addition of 5 μg/ml of Dox, luciferase activity is induced up to 600 fold. In comparison to the HeLa cell line HR5 harboring chromosomal copies of the rtTA gene (Gossen et al., 1995), the background level is reduced. […] This leads to a several hundred fold induction of gene expression in the case of the rtTA-34R clones whereas in HR5 cells rtTA achieves only a 20 to 30 fold induction under these conditions.

[4] = system: Ptet-luciferase expression unit; experiment: Dox dependent luciferase activity in stably transfected HeLa cells (X1/6-34R-FFFF, HR5-CL11); settings: X1/6-34R-FFFF or HR5-CL11
From the text: The coding sequence of rTetR-34R was fused with a DNA encoding four minimal activation domains (FFFF)(Baron et al., 1997) by insertion into a proper pUHD vector to generate plasmid […]. HeLa cell line X1/6 was transfected with plasmid pUHrT5 1-1 carrying the rtTA-34R-FFFF gene under the control of PhCMv. The resulting HeLa cell line X1/6-34R-FFFF contains, in addition, the Ptet-luciferase expression unit in a “silent but activatable” locus.
Cell lines derived from various clones that contain pUHrT51-1 stably inserted into the genome where it is constitutively expressed were isolated via hygromycin-B selection and analyzed for Dox dependent luciferase activity. […] This is most likely due to the residual affinity between rtTA and tetO.

[5] = cell line HeLa 0.34R-16, episomal pCEP4-rtTA-34R
[6] = cell line HeLa 0.34R-33, episomal pCEP4-rtTA-34R
[7] = cell line HeLa 0.34R-36, episomal pCEP4-rtTA-34R
[8] = cell line HeLa HR5 (Tet on), chromosomal copies of the rtTA gene

## rtTA-34R: rtTA sequence variant E19G, A56P, H139H (silent), D148E, H179R; aa = SEQ ID NO:2
[1]
  basal activity (GFP fluorescence in the absence of inducer): clearly lower as compared to rtTA
[2]
  induction of luciferase activity compared to rtTA: even higher induction of luciferase activity as compared to rtTA
  reverse phenotype: improved reverse phenotype
[3]; 5 μg/ml of Dox, rtTA-34R HeLa clones
  induced level of luciferase in comparison to HR5: significantly elevated
[3]; 5 μg/ml of Dox, rtTA-34R HeLa clones, rtTA in HR5 cells
  induction of luciferase activity: up to 600 fold
[3]; cell line HeLa 0.34R-16
  factor of induction: 600
[3]; [5]
  Luciferase activity (RLU/μg protein) with Dox: 540 ± 50 RLU/μg protein
  Luciferase activity (RLU/μg protein) without Dox: 323600 ± 69470 RLU/μg protein
[3]; cell line HeLa 0.34R-33
  factor of induction: 200
[3]; [6]
  Luciferase activity (RLU/μg protein) with Dox: 360 ± 140 RLU/μg protein
  Luciferase activity (RLU/μg protein) without Dox: 74620 ± 3230 RLU/μg protein
[3]; cell line HeLa 0.34R-36
  factor of induction: 200
[3]; [7]
  Luciferase activity (RLU/μg protein) with Dox: 430 ± 50 RLU/μg protein
  Luciferase activity (RLU/μg protein) without Dox: 87000 ± 7820 RLU/μg protein
[3]; without Dox, rtTA-34R HeLa clones
  background level of luciferase in comparison to HR5: reduced

## rtTA-44R: rtTA sequence variant T26A, D95G; aa = SEQ ID NO:13
[1]
  basal activity (GFP fluorescence in the absence of inducer): clearly lower as compared to rtTA
[2]
  induction of luciferase activity compared to rtTA: not improved over rtTA
  reverse phenotype: shows a reverse phenotype

## rtTA-1956R: rtTA sequence variant E19G, A56P; aa = SEQ ID NO:7
[2]
  reverse phenotype: sufficient for the reverse phenotype

## rtTA: original reverse tetracycline controlled transactivator (Gossen et al., 1995), parent, SEQ ID NO: 22/23 [reference compound]
[1]; GFP fluorescence, Tc or Dox 10 μg/ml
  induction factor of expression: 40 fold
[3]; cell line HeLa HR5 (Tet on)
  factor of induction: 27
[3]; [8]
  Luciferase activity (RLU/μg protein) with Dox: 920 ± 170 RLU/μg protein
  Luciferase activity (RLU/μg protein) without Dox: 26400 ± 4030 RLU/μg protein
[4]
  induction of luciferase activity by Dox: about 700 fold
  luciferase activity in the absence of Dox: significant background luciferase activity
